Literature values as cited in US20020068684A1, “Stripping and cleaning compositions” (priority 1999, published 2002).

Conditions: from CRC tables

Compound: Oc1ccccc1O [Catechol]
- PKa: 9.85
